Where “and” joins values, the source holds several entries; their conditions need not be identical. Equal values may be shown once.
Legend:
Format in all cases: cell-based, human
[1] = test system: DPH1 gene; experiment: DT + PM double resistant colony count after DPH1 gene editing (integration with inactivation); conditions: for # of DT + PM resistant colonies (40,000 seeded cells) / # of DT + PM resistant colonies (40,000 seeded cells) (unheaded second sub-column: mean): DPH1 (gRNA length), TF eff. = 31%; for # of DT + PM resistant colonies (40,000 seeded cells) / # of PM + DT resistant colonies (40,000 seeded cells): MCF7, individual samples A-D; for # of PM + DT resistant colonies (40,000 seeded cells) / # of PM + DT resistant colonies (40,000 seeded cells) (unheaded second sub-column: mean): DPH1 assay (integr. vs. (integr. + k.o.)), TF eff. = 67*%; for # of DT + PM resistant colonies (80,000 seeded cells): DPH1 assay editing entities, MCF-7, individual replicates, TF eff. = 33%
Method: MCF7 cells (Brooks, et al. 1973) were originally obtained from ATCC (subsequently propagated in an in-house cell bank) and maintained in RPMI 1641 medium supplemented with 10% FCS, 2 mM L-Glutamine and penicillin/streptomycin at 37° C. and 85% humidity. For transfection of plasmids harboring gene-editing modules, 3,000,000 cells were seeded in a 10 cm diameter culture dish and cultivated at 37° C. and humidified 5% CO2. 24 h after seeding, cells were transfected with 20 μg total DNA using JetPEI (Polyplus) according to the manufacturer's protocol but with an N/P ratio of 6:1. Transfection efficiency was determined after 24 h by flow cytometry (FACS Calibur, BD biosciences) of cells that were transfected with a modified eGFP expression plasmid (Zhang, et al. 1996).
CRISPR/Cas module for targeted integration contains a puromycin (PM) resistance gene expression cassette without promoter to avoid transient expression. Thus, detection of integration of recombinant sequences into the genome was detected by determining sensitivity of cells towards PM. A concentration of 500 ng/μL PM (which quantitatively eliminates wildtype MCF7 cells) was applied to select MCF7 cells with stably integrated expression cassettes. PM-resistant colonies selected with the same procedure as described above for the DT selection and visualized and quantified (between 12 and 14 days after start of selection) in the same manner as described above for toxin resistant colonies. Number of PM resistant colonies obtained with non-target guide sequences (scrambled gRNA, FIG. 1) reflect the nonspecific integration background. Increase in colonies (above nonspecific background) obtained with target-gene gRNAs which are PM-resistant but toxin sensitive reflect integration into just one target allele, leaving the other dph1 or dph2 allele unaffected. PM resistant colonies that are also DT resistant have the expression cassette integrated into at least target allele and the other allele either inactivated or inactivated accompanied by yet another integration event.

[2] = test system: DPH1 gene; experiment: HRM-PCR on single cells followed by DT sensitivity assay; conditions: FIG. 5B
Method: Cells which have only one allele of dph1 or dph2 modified are not toxin resistant. To identify and quantify those events, high resolution melting (HRM) PCR was applied in a similar manner as described by Stahl et al (Stahl, et al. 2015): 24 h after transfection, single cells were deposited in 96-well plates by FACS (FACSAria, BD biosciences) and grown until confluency. Cells were washed with PBS and lysed by addition of 40 μL cell lysis buffer (Roche) per well. After 15 mins incubation at RT on a plate shaker (Titramax 1000, Heidolph) at 750 rpm, the cell lysate was 1:5 diluted with PCR grade H2O. 5 μL cell lysate was mixed with a High resolution melting (HRM) master mix (Roche) and with primer spanning the gRNA target sequence. PCR and HRM were performed in an LC480 II (Roche) according the manufacturer's protocol. Clones with edited target genes were identified by their altered melting curve compared to MCF7-WT cells.
Therefore, such clones were expanded (without toxin or Puromycin selection) and subjected to cell viability analyses to discriminate between heterozygous (toxin sensitive) and homozygous (resistant) knockout cells. […] Metabolic activity of surviving cells was assessed by a CellTiterGlo® Luminescent Viability Assay (Promega) performed according to the manufacturer's specifications.

[3] = test system: DPH1 gene; experiment: DT resistant colony count after DPH1 gene editing (homozygous gene inactivation); conditions: for # of DT resistant colonies (mean of the samples) / # of DT resistant colonies: TF eff. = 38%; for # of DT resistant colonies: DPH1 assay (integr. vs. k.o.), individual samples; for # of DT resistant colonies (40,000 seeded cells): DPH1 assay editing entities, MCF-7, individual replicates, TF eff. = 33%
[4] = test system: DPH2 gene; experiment: DT resistant colony count after DPH2 gene editing; conditions: DPH2 assay (integr. vs. k.o.)
Method: (§1) MCF7 cells (Brooks, et al. 1973) were originally obtained from ATCC (subsequently propagated in an in-house cell bank) and maintained in RPMI […] medium supplemented with 10% FCS, 2 mM L-Glutamine and penicillin/streptomycin at 37° C. and 85% humidity. For transfection of plasmids harboring gene-editing modules, 3,000,000 cells were seeded in a 10 cm diameter culture dish and cultivated at 37° C. and humidified 5% CO2. 24 h after seeding, cells were transfected with 20 μg total DNA using JetPEI (Polyplus) according to the manufacturer's protocol but with an N/P ratio of 6:1. Transfection efficiency was determined after 24 h by flow cytometry (FACS Calibur, BD biosciences) of cells that were transfected with a modified eGFP expression plasmid (Zhang, et al. 1996).
(§2) Plasmids encoding CRISPR/Cas9 gene-editing entities (i.e. knock-out and integration systems) against Dph1 (gRNA target sequence: […] (SEQ ID NO: 01) derived from RefSeq: NM_001383) and Dph2 (gRNA target sequence: […] (SEQ ID NO: 02) derived from RefSeq: NM_001039589, NM_001384), and scrambled control (gRNA sequence: […] (SEQ ID NO: 03)) were obtained from OriGene. This system comprises one plasmid expressing a ˜100 nt gRNA under control of a U6 promoter as well as Cas9 nuclease under control of a CMV promoter and a Donor plasmid with a promoter-less GFP/PM expression cassette flanked by homologous arms to the target gene (Dph1 or Dph2). Additional Dph1 gRNA sequence variants of different sizes (OriGene) […]
(§3) MCF7 cells which have all chromosomal copies of DPH1 or DPH2 inactivated are resistant to diphtheria toxin (Stahl, et al. 2015). Thus, occurrence and frequency of toxin resistant cells/colonies upon CRISPR/Cas inflicted gene inactivation provides a measure for efficiency of inactivation of all gene copies. Therefore, MCF/cells were transfected as described in Example 1 with (i) a GFP expression plasmid as transfection control, (ii) the CRISPR/Cas9 Dph1 or Dph2 knock-out/integration system and (iii) knock-out/integration entities containing a scrambled gRNA to determine Cas9 independent integration frequencies. After determination of transfection efficiency, cells were seeded in 6-well plates. For quantification of homozygous knock-out events by DT 20000 cells were seeded and for quantification of integration events by PM or both events 40000 cells were seeded. RPMI medium was exchanged by RPMI medium containing DT or PM or both toxins 3 days after cell seeding. Exchange of medium was repeated every 2-3 days until all dead cells were removed from the plates and actively growing colonies could be detected via microscopic inspection. Thereafter (between day 12 and day 14 after start of toxin exposure), cells were washed 3 times with PBS and subsequently stained with ice cold methylene blue (0.2% in 50% EtOH). Methylene blue solution was subsequently removed and the plates were carefully washed under running water. Finally, cell colonies were counted under the microscope with a 5 mm grid foil.

[5] = test system: DPH2 gene; experiment: PM resistant colony count after DPH2 gene editing; conditions: DPH2 assay (integr. vs. k.o.); for # of PM resistant colonies (40,000 seeded cells): MCF7, individual samples A-D
Method: as §1, §2, §3
CRISPR/Cas module for targeted integration contains a puromycin (PM) resistance gene expression cassette without promoter to avoid transient expression. Thus, detection of integration of recombinant sequences into the genome was detected by determining sensitivity of cells towards PM. A concentration of […] PM (which quantitatively eliminates wildtype MCF7 cells) was applied to select MCF7 cells with stably integrated expression cassettes. PM-resistant colonies selected with the same procedure as described above for the DT selection and visualized and quantified (between 12 and 14 days after start of selection) in the same manner as described above for toxin resistant colonies. Number of PM resistant colonies obtained with non-target guide sequences (scrambled gRNA, FIG. 1) reflect the nonspecific integration background. […]

[6] = DPH1 assay (integr. vs. k.o.), 10,000 seeded cells
[7] = DPH1 assay (integr. vs. k.o.), 40,000 seeded cells

20 mer SpCas9 DPH1 gRNA: Plasmids encoding SpCas9 and Dph1 gRNA (target CAGGGCGGCCGAGACGGCCC, SEQ ID NO: 01) plus PAC donor plasmid, OriGene
# of DT + PM resistant colonies (40,000 seeded cells) [1]: 6 and 5 and 7 (2×) | # of DT + PM resistant colonies (40,000 seeded cells) ([1]; listed as 20 mer Dph1 CRISPR Cas9 gRNA): 6 and 5 and 7 (2×) | # of DT + PM resistant colonies (40,000 seeded cells) (unheaded second sub-column: mean) [1]: 6 | # of PM + DT resistant colonies (40,000 seeded cells) [1]: 15 and 13 and 11 and 12 | # of PM + DT resistant colonies (40,000 seeded cells) ([1]; listed as Dph1 CRISPR Cas9 gRNA): 15 and 13 and 11 and 12 | # of PM + DT resistant colonies (40,000 seeded cells) (unheaded second sub-column: mean) [1]: 13 | # of DT + PM resistant colonies (80,000 seeded cells) [1]: 5 and 4 and 3 | mono-allelic gene inactivation (toxin sensitive, HRM confirmed) versus inactivation of both alleles (DTr) [2]: twice as frequent | # of DT resistant colonies (mean of the samples) [3, 6]: 218 | # of DT resistant colonies (mean of the samples) [3, 7]: 947 | # of DT resistant colonies ([3]; MCF7, 10,000 seeded cells, listed as CRISPR Cas9 Dph1 gRNA): 201 and 224 and 219 | # of DT resistant colonies ([3]; MCF7, 40,000 seeded cells): 995 and 942 and 899 and 950 | # of DT resistant colonies ([3]; MCF7, 40,000 seeded cells, listed as CRISPR Cas9 Dph1 gRNA): 995 and 942 and 899 and 950 | # of DT resistant colonies (40,000 seeded cells) [3]: 476 and 492 and 468 and 472

20 mer SpCas9 scRNA: Scrambled control gRNA GCACTACCAGAGCTAACTCA (SEQ ID NO: 03) with SpCas9 and donor plasmid [reference compound]
# of DT + PM resistant colonies (40,000 seeded cells) [1]: 0 | # of DT + PM resistant colonies (40,000 seeded cells) (unheaded second sub-column: mean) [1]: 0 | # of PM + DT resistant colonies (40,000 seeded cells) [1]: 0 | # of PM + DT resistant colonies (40,000 seeded cells) (unheaded second sub-column: mean) [1]: 0 | # of DT + PM resistant colonies (80,000 seeded cells) [1]: 0 | # of DT resistant colonies (40,000 seeded cells) (unheaded second sub-column: mean) ([4]; MCF7): 0 | # of DT resistant colonies (40,000 seeded cells) ([4]; MCF7, individual samples A-D): 0 | # of PM resistant colonies (40,000 seeded cells) (unheaded second sub-column: mean) ([5]; MCF7): 0.5 | # of PM resistant colonies (40,000 seeded cells) [5]: 2 and 0 (3×) | # of PM resistant colonies (40,000 seeded cells) ([5]; listed as 20 mer scRNA): 2 and 0 (3×) | # of DT resistant colonies (mean of the samples) [3, 6]: 0 | # of DT resistant colonies (mean of the samples) [3, 7]: 0 | # of DT resistant colonies ([3]; MCF7, 10,000 seeded cells): 0 | # of DT resistant colonies ([3]; MCF7, 40,000 seeded cells): 0 | # of DT resistant colonies (40,000 seeded cells) [3]: 0

Reference: US20250250559A1, “METHOD TO ANALYZE AND OPTIMIZE GENE EDITING MODULES AND DELIVERY APPROACHES” (Hoffmann-La Roche Inc., priority 2016, published 2025)
